B1: BDNF: subtherapeutic growth factor BDNF (protein, UniProt P23560 19-247, looked up)
Neurotrophic factor BDNF …: APMKEANIRGQGGLAYPGVRTHGTLESVNGPKAGSRGLTSLADTFEHVIEELLDEDQKVRPNEENNKDADLYTSRVMLSSQVPLEPPLLFLLEEYKNYLDAANMSMRVRRHSDPARRGELSVCDSISEWVTAADKKTAVDMSGGTVTVLEKVPVSKGQLKQYFYETKCNPMGYTKEGCRGIDKRHWNSQCRTTQSYVRALTMDSKKRIGWRFIRIDTSCVCTLTIKRGR

Assays:
[1] = test system: primary mouse cortical neurons; experiment: Synaptogenesis (Homer puncta per TUJ1+ area) in primary cortical neurons; type: cell-based; details: co-treatment with subtherapeutic BDNF; 24 and 72 hours of treatment (FIG. 13)
Experimental: FIG. 13 contains images showing that inhibition of PAR1 signaling accelerates synaptogenesis in primary mouse cortical neurons. Murine neurons were cultured in vitro for 24 hours before addition of the PAR1 inhibitor Vorapaxar, subtherapeutic growth factor BDNF, Or both. […] Synapse density was quantified by staining for Homer, a scaffold protein concentrated at the post-synaptic densities by counting puncta in ImageJ. Synapse counts were normalized by total neurite area (TUJ1+ area) to determine the density of synapses on neurites (average of 5 randomly selected fields per well, 6 wells per treatment). Results are plotted in the graphs in the right panel *P<0.05 SNK, n=6 all groups, both timepoints). Inhibition of PAR1 signaling also accelerated synaptogenesis in primary mouse cortical neurons (FIG. 13). Murine neurons were cultured in vitro for 24 hours before addition of the PAR1 inhibitor Vorapaxar, subtherapeutic growth factor BDNF, or both. […] Synapse density was quantified by staining for Homer, a scaffold protein concentrated at the post-synaptic densities by counting puncta in ImageJ. Synapse counts were normalized by total neurite area (TUJ1+ area) to determine the density of synapses on neurites (average of 5 randomly selected fields per well, 6 wells per treatment).

HMGCS1 = HMGCS1 expression in primary cortical neurons (real-time quantitative PCR); type: cell-based, murine
Experimental: FIG. 3 is a graph plotting HMGCS1 expression in cultures of primary cortical neurons treated with the PAR1 small molecule inhibitor Vorapaxar (100 nM) or vehicle control for 72 hours.
Expression of HMGCS1, an enzyme responsible for production of HMGCoA for the rate-limiting step in cholesterol biosynthesis, was quantified by real-time quantitative PCR.
HMGCS1 is responsible for production of HMGCoA for the rate-limiting step in cholesterol biosynthesis.

SH-SY5Y cells = experiment: Cellular cholesterol content, amplex red colorimetric assay; type: cell-based, human; details: 100 nM, 72 hours (FIG. 22)
Experimental: FIG. 22 is a graph plotting human neuronal (SH-SY5Y) cells grown in the presence of the small molecule PAR1 inhibitor, Vorapaxar (“Vora,” at 100 nM) or control for 72 hours. […] Cholesterol content was quantified by the amplex red colorimetric assay. Finally, cholesterol levels were evaluated in a human neuronal cell line (SH-SY5Y cells) grown in the presence of the small molecule PAR1 inhibitor, Vorapaxar, for 72 hours.

[2] = test system: primary mouse cortical neurons; experiment: Neurite outgrowth (TUJ1+ area) in primary cortical neurons; type: cell-based; details: co-treatment with subtherapeutic BDNF; 24 and 72 hours of treatment (FIG. 12)
Experimental: FIG. 12 contains a series of images showing that inhibition of PAR1 signaling accelerates neurite outgrowth in primary mouse cortical neurons. Murine neurons were cultured for 24 hours before addition of the PAR1 inhibitor Vorapaxar, subtherapeutic growth factor BDNF, or both. […] Neurite outgrowth was quantified by staining for TUJI (a cytoskeletal protein present in both axons and dendrites) and measuring TUJI+ area (the average of 5 randomly selected fields per well, 6 wells per treatment). Production of lipids and cholesterol, major constituents of neuronal membranes, was required to grow both axons and dendrites. Results are plotted in the graphs in the right panel (*P<0,05 SNK, n=6 all groups, both timepoints). […] Murine neurons were cultured for 24 hours before addition of the PAR1 inhibitor Vorapaxar, subtherapeutic growth factor BDNF, or both. […] Neurite outgrowth was quantified by staining for TUJ1 (a cytoskeletal protein present in both axons and dendrites) and measuring TUJ1+ area (the average of 5 randomly selected fields per well, 6 wells per treatment). Production of lipids and cholesterol, major constituents of neuronal membranes, was required to grow both axons and dendrites.

Murine neurons = experiment: Growth of new neurites after transection (scratch) injury in vitro; type: cell-based, mouse; details: co-treatment with subtherapeutic BDNF, added following scratch injury (FIG. 14)
Experimental: FIG. 14 contains a series of images showing that inhibition of PAR1 signaling accelerates growth of new neurites following transection injury in vitro. Murine neurons were cultured in vitro to confluence, and then a large wound was created by mechanically scratching the center of each field. The PAR1 inhibitor Vorapaxar, subtherapeutic growth factor BDNF, or both were added following injury. […] Results are plotted in the graph in the right panel (*P<0.05 SNK, n=6 all groups). Inhibition of PAR1 signaling accelerated growth of new neurites following transection injury in vitro (FIG. 14). Murine neurons were cultured in vitro to confluence, and then a large wound was created by mechanically scratching the center of each field. The PAR1 inhibitor Vorapaxar, subtherapeutic growth factor […], or both were added following injury.

[3] = test system: primary mouse cortical neurons; experiment: Neurite outgrowth under statin inhibition of cholesterol production; type: cell-based; details: statin-treated cultures
Source text: Neurite outgrowth was quantified by staining for TUJ1 (a cytoskeletal protein present in both axons and dendrites) and measuring TUJ1+ area (the average of 5 randomly selected fields per well, 6 wells per treatment). *P<0.05 SNK, n=6 all groups.
Neurite outgrowth was quantified by staining for TUJ1 (a cytoskeletal protein present in both axons and dendrites) and measuring TUJ1+ area (the average of 5 randomly selected fields per well, 6 wells per treatment).

Row | Molecule | production of synaptic densities (Homer puncta normalized by TUJ1+ area) [1] | HMGCS1 expression (HMGCS1; primary cortical neurons, 100 nM, 72 hours, vs vehicle-treated controls (FIG. 3)) | expression of HMGCS1 (real-time quantitative PCR) (HMGCS1; primary murine cortical neurons, with or without co-treatment with BDNF (FIG. 15)) | cellular cholesterol vs untreated cells (SH-SY5Y cells) | production of neurites (TUJ1+ area) [2] | growth of new neurites through the injury zone (TUJ1+ area in the scratch) (Murine neurons) | recovery of neurite production (TUJ1+ area) from statin treatment ([3]; agent alone (FIG. 16)) | recovery of neurite production (TUJ1+ area) from statin treatment ([3]; co-treatment of PAR1 inhibitor with subtherapeutic BDNF (FIG. 16))
1 | CCOC(=O)N[C@@H]1CC[C@@H]2[C@@H](C1)C[C@H]1C(=O)O[C@H](C)[C@H]1[C@H]2/C=C/c1ccc(-c2cccc(F)c2)cn1 [Vorapaxar] | potentiated the effect of BDNF, significantly increasing production of synaptic densities | promoted increases in HMGCS1 expression | increased the expression of HMGCS1 | more than twice the amount of cellular cholesterol | potentiated the effect of BDNF, significantly increasing production of neurites | potentiated the effect of BDNF, significantly increasing growth of new neurites through the injury zone | did not result in recovery of neurite production | partially rescued neurite production from statin treatment
2 | B1 | – | – | – | – | – | – | did not result in recovery of neurite production | –
